For one series, the target named is Carbonic anhydrase 2 (Homo sapiens, UniProt P00918). Briefly: Inhibition of human carbonic anhydrase 2 up to 100 uM by CO2 hydrase stopped flow assay.
Another series addresses Carbonic anhydrase 1 (Homo sapiens, UniProt P00915). Kind of series: Inhibition of human carbonic anhydrase 1 up to 100 uM by CO2 hydrase stopped flow assay.
A short description of the next series: physchem. Conditions: buffer, pH 6; call rule not given here.
The species named for the next series is Oryctolagus cuniculus. Briefly: tissue or blood. As to conditions: Aorta.
A further series concerns the target Carbonic anhydrase 4 (Homo sapiens, UniProt P22748). Kind of series: Inhibition of human carbonic anhydrase 4 up to 100 uM by CO2 hydrase stopped flow assay.

Values after ≈ are worked out from the molar mass of the structure shown.

Sequence of Carbonic anhydrase 4 (P22748 whole entry): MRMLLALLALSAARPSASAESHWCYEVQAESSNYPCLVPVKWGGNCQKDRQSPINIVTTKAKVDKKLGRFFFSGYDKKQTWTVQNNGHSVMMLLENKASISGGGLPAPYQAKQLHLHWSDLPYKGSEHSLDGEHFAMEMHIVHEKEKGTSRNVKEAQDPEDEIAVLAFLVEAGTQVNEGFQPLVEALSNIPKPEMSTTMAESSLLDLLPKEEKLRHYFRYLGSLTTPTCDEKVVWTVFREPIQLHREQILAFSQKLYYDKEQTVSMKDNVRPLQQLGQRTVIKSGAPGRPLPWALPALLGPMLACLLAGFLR
Sequence of Carbonic anhydrase 1 (P00915 whole entry): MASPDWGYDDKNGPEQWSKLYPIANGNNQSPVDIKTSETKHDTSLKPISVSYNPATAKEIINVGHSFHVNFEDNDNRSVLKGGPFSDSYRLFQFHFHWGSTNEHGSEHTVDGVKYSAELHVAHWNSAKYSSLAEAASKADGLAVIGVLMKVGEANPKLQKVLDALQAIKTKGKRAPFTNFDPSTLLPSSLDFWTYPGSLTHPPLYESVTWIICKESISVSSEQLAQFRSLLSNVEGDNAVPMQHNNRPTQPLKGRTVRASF
Description for Oryctolagus cuniculus: Vasorelaxant activity against methoxiamin-induced contraction in rabbit aortic ring

On to `O=[N+]([O-])O[C@@H]1CO[C@H]2[C@@H]1OC[C@@H]2O` [ISOSORBIDE MONONITRATE], for which the Ki entry at Carbonic anhydrase 2, at Carbonic anhydrase 1 and on Carbonic anhydrase 4 was “Not Active” in each case. In addition, the solubility in “physchem” is < 20 mg/mL. This compound gave an EC50 in the series filed under Oryctolagus cuniculus of 10.8 µM.

`CCN(C(=O)OCCCO[N+](=O)[O-])[C@H]1C[C@H](C)S(=O)(=O)c2sc(S(N)(=O)=O)cc21`: the concentration in solution in the series “physchem” (solubility) came to 15.1 mg/mL (≈ 32 mM). In addition, the EC50 in the series listed under Oryctolagus cuniculus turned out to be 2.05 µM.

Take `CCN(C(=O)OCC(CO[N+](=O)[O-])O[N+](=O)[O-])[C@H]1C[C@H](C)S(=O)(=O)c2sc(S(N)(=O)=O)cc21` (stereo not given in full): the EC50 in the series filed under Oryctolagus cuniculus amounted to 0.37 µM.

Turning to `CCN(C(=O)CCCCCO[N+](=O)[O-])[C@H]1C[C@H](C)S(=O)(=O)c2sc(S(N)(=O)=O)cc21`, the solubility in “physchem” was 0.25 mg/mL (≈ 0.517 mM). The compound further showed a concentration for a half-maximal effect (EC50) in the series listed under Oryctolagus cuniculus of 4.25 µM.
